Test results taken from patent publication JP2011231022A, “イミダゾロン誘導体” (Ajinomoto Co Inc, priority 2010, dated 2011).
Where two headings read alike, the source gives them in different places.

Assays:
aorta ring (大動脈リング) [1] = experiment: Involvement of PI3K in relaxation of isolated rat aorta rings, wortmannin pretreatment (Example 4); assay type: cell-based; conditions: for relaxation rate: wortmannin (WO) 200 nM, 15 min pretreatment
[2] = system: phenylephrine-induced hypertensive model rat (フェニレフリン昇圧モデルラット); experiment: Hypotensive action in phenylephrine-induced hypertensive model rats (Example 8); assay type: in vivo; conditions: Wistar male rat; 40 mg/kg intravenous; phenylephrine 75 μg/kg/min
[3] = system: rat isolated blood vessel (ラット摘出血管); experiment: EC50 of vasorelaxation in phenylephrine-precontracted isolated rat aorta rings (Example 2); assay type: cell-based
aorta ring (大動脈リング) [4] = experiment: Endothelium-derived NO mechanism study in isolated rat aorta rings: endothelium removal and inhibitors (Example 3); assay type: cell-based; conditions: for relaxation of phenylephrine contraction with C-PTIO: NO scavenger C-PTIO 300 μM; for relaxation of phenylephrine contraction with C-PTIO / relaxation of phenylephrine contraction with L-NAME / relaxation of phenylephrine contraction with indomethacin / relaxation of phenylephrine contraction with ODQ: 15 min pretreatment; for relaxation of phenylephrine contraction with L-NAME: NOS inhibitor L-NAME 100 μM; for vasorelaxing action after endothelium removal: aorta ring with endothelium mechanically removed; for relaxation of phenylephrine contraction with indomethacin: cyclooxygenase inhibitor indomethacin 10 μM; for relaxation of phenylephrine contraction with ODQ: soluble guanylate cyclase inhibitor ODQ 1 μM
[5] = Oral absorption in fasted male ICR mice, plasma concentration by LC/MS (Example 7); assay type: in vivo; conditions: mouse (ICR male, fasted), 100 mg/kg oral
[6] = system: eNOS serine 1177 residue (eNOSセリン1177残基); experiment: Phosphorylation of eNOS serine 1177 in isolated rat thoracic aorta rings (Examples 5 and 6); assay type: cell-based; conditions: 5 min; for enhancement of eNOS serine 1177 phosphorylation: without wortmannin
[7] = system: Akt serine 473 residue (Aktセリン473残基); experiment: Phosphorylation of Akt serine 473 in isolated rat thoracic aorta rings (Examples 5 and 6); assay type: cell-based; conditions: 5 min; for enhancement of Akt serine 473 phosphorylation: without wortmannin
[8] = system: rat isolated blood vessel, thoracic aorta ring (ラット摘出血管、大動脈リング); experiment: Vasorelaxation of phenylephrine-precontracted isolated rat thoracic aorta rings (Example 1, screening); assay type: cell-based; conditions: 100 μM; 1 μM phenylephrine precontraction; endothelium intact
[9] = 100〜500 μM, wortmannin (WO) 200 nM, 20 min pretreatment
[10] = concentration giving 50% relaxation of phenylephrine contraction, 1〜100 μM, logistic method, read-out: EC50
[11] = 100 μM or 300 μM, wortmannin (WO) pretreatment

SMILES: CC1N=C(NCCC[C@H](N)C(=O)O)NC1=O (stereo partly shown) [I−1, Nδ−(5−ヒドロ−5−メチル−4−イミダゾロン−2−イル)−L−オルニチン]
- relaxation rate (aorta ring (大動脈リング) [1]; 50 μM): 10±3%
- inhibition at 50 µM (aorta ring (大動脈リング) [1]; Rattus norvegicus, read-out: relaxation rate): 93 ± 3%
- maximum decrease of mean blood pressure [2]: 12.7 mmHg
- time from start of administration to onset of hypotensive action [2]: ~1 min
- EC50 [3]: 13 µM
- relaxation of phenylephrine contraction with C-PTIO (aorta ring (大動脈リング) [4]): 血管の弛緩が大幅に減弱した
- relaxation of phenylephrine contraction with L-NAME (aorta ring (大動脈リング) [4]): 血管の弛緩がほとんど見られなかった
- vasorelaxing action after endothelium removal (aorta ring (大動脈リング) [4]): 完全に消失した
- relaxation of phenylephrine contraction with indomethacin (aorta ring (大動脈リング) [4]): 血管の弛緩に全く影響を与えなかった
- relaxation of phenylephrine contraction with ODQ (aorta ring (大動脈リング) [4]): 血管の弛緩が大幅に減弱した
- Cmax at 0.25 h ([5]; at 15 min after dosing, read-out: maximum plasma concentration): 174 µM
- Tmax ([5]; read-out: time of maximum plasma concentration (converted)): 15 min

SMILES: CC1(CO)N=C(NCCC[C@H](N)C(=O)O)NC1=O (stereo partly shown) [I−2, Nδ−(5−メチル−5−ヒドロキシメチル−4−イミダゾロン−2−イル)−L−オルニチン]
- enhancement of eNOS serine 1177 phosphorylation ([6]; 100〜500 μM): 濃度依存的にeNOSセリン1177残基のリン酸化亢進作用を示した
- eNOS serine 1177 phosphorylation after wortmannin pretreatment [6, 9]: 完全に抑制された
- enhancement of Akt serine 473 phosphorylation ([7]; 100〜500 μM): Aktセリン473残基のリン酸化亢進作用を示した
- Akt serine 473 phosphorylation after wortmannin pretreatment [7, 9]: 完全に抑制され

SMILES: N[C@@H](CCCNC1=NC(CCO)C(=O)N1)C(=O)O (stereo partly shown) [I−3, Nδ−[5−ヒドロ−5−(2−ヒドロキシエチル)−4−イミダゾロン−2−イル]−L−オルニチン]
- enhancement of eNOS serine 1177 phosphorylation ([6]; 100〜500 μM): 濃度依存的にeNOSセリン1177残基のリン酸化亢進作用を示した
- eNOS serine 1177 phosphorylation after wortmannin pretreatment [6, 9]: 完全に抑制された
- relaxation rate (aorta ring (大動脈リング) [1]; 100 μ (so in the source)): 3±3%
- inhibition at 100 µM (aorta ring (大動脈リング) [1]; Rattus norvegicus, 100 μ (so in the source), untreated control (no wortmannin), read-out: relaxation rate): 62 ± 8%
- EC50 [3, 10]: 71 µM
- relaxation of phenylephrine contraction with C-PTIO (aorta ring (大動脈リング) [4]): 血管の弛緩が大幅に減弱した
- relaxation of phenylephrine contraction with L-NAME (aorta ring (大動脈リング) [4]): 血管の弛緩がほとんど見られなかった
- vasorelaxing action after endothelium removal (aorta ring (大動脈リング) [4]): 完全に消失した
- relaxation of phenylephrine contraction with indomethacin (aorta ring (大動脈リング) [4]): 血管の弛緩に全く影響を与えなかった
- relaxation of phenylephrine contraction with ODQ (aorta ring (大動脈リング) [4]): 血管の弛緩が大幅に減弱した
- enhancement of Akt serine 473 phosphorylation ([7]; 100〜500 μM): Aktセリン473残基のリン酸化亢進作用を示した
- Akt serine 473 phosphorylation after wortmannin pretreatment [7, 9]: 完全に抑制され

SMILES: N[C@@H](CCCNC1=NC(CC(O)C(O)CO)C(=O)N1)C(=O)O (stereo partly shown) [I−7, Nδ−[5−ヒドロ−5−(2,3,4−トリヒドロキシブチル)−4−イミダゾロン−2−イル]−L−オルニチン]
- eNOS serine 1177 phosphorylation after wortmannin pretreatment [6, 11]: 完全に抑制された
- enhancement of eNOS serine 1177 phosphorylation ([6]; 300 μM): eNOSセリン1177残基のリン酸化亢進作用を示した
- relaxation rate (aorta ring (大動脈リング) [1]; 50 μM): 5±2%
- inhibition at 50 µM (aorta ring (大動脈リング) [1]; Rattus norvegicus, 50 μM, untreated control (no wortmannin), read-out: relaxation rate): 90 ± 5%
- EC50 [3, 10]: 25 µM
- relaxation of phenylephrine contraction with C-PTIO (aorta ring (大動脈リング) [4]): 血管の弛緩が大幅に減弱した
- relaxation of phenylephrine contraction with L-NAME (aorta ring (大動脈リング) [4]): 血管の弛緩がほとんど見られなかった
- vasorelaxing action after endothelium removal (aorta ring (大動脈リング) [4]): 完全に消失した
- relaxation of phenylephrine contraction with indomethacin (aorta ring (大動脈リング) [4]): 血管の弛緩に全く影響を与えなかった
- relaxation of phenylephrine contraction with ODQ (aorta ring (大動脈リング) [4]): 血管の弛緩が大幅に減弱した
- Akt serine 473 phosphorylation after wortmannin pretreatment [7, 11]: 完全に抑制され
- enhancement of Akt serine 473 phosphorylation ([7]; 300 μM): Aktセリン473残基のリン酸化亢進作用を示した

SMILES: N=C(N)NCCC[C@H](N)C(=O)O [L−アルギニン]
- vasodilating action (relaxation of phenylephrine contraction) [8]: 血管拡張作用が見出せなかった

SMILES: OC[C@H]1OC(O)[C@H](O)[C@@H](O)[C@@H]1O (stereo partly shown) [グルコース]
- vasodilating action (relaxation of phenylephrine contraction) [8]: 血管拡張作用が見出せなかった

SMILES: N=C(N)NCCC[C@H](NCC(=O)[C@@H](O)[C@H](O)[C@H](O)CO)C(=O)O [フラクトシルアルギニン]
- vasodilating action (relaxation of phenylephrine contraction) [8]: 血管拡張作用が見出せなかった
